# Experimental data published in US20080200454A1, “CARBON-LINKED TETRAHYDRO-PYRAZOLO-PYRIDINE MODULATORS OF CATHEPSIN S” (priority 2007, published 2008).
# Like-named read-outs stand apart in the source and are kept apart here.
# Molecular target: Recombinant human cathepsin S (CatS) (Homo sapiens, UniProt P25774)
# Test: Recombinant human cathepsin S (CatS) inhibition assay, fluorogenic substrate Z-Valine-Valine-Arginine-AMC;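 further: Baculovirus-expressed CatS in pH 5.0 sodium acetate buffer with DTT and NaCl, fluorescence read each minute over 20 min, inhibition derived from rate slope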
# Recombinant human cathepsin S (CatS), sequence (P25774 115-331): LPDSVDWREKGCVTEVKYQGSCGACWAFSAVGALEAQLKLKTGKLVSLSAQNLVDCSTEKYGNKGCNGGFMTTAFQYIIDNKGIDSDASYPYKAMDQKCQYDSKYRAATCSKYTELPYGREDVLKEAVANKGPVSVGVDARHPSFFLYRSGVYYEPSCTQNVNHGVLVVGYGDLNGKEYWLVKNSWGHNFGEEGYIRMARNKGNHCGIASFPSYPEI
IC50 [µM],SMILES,IC50 (CatS IC50) [µM]
0.04,"NC(=O)N1CCc2c(c(-c3ccc(Cl)c(C#Cc4ccc(Cl)c(C(=O)NCC5CNCCO5)c4)c3)nn2CCCN2CCSCC2)C1 (stereo not drawn) [Example 584, 3-[4-Chloro-3-({4-chloro-3-[(morpholin-2-ylmethyl)carbamoyl]phenyl}ethynyl)phenyl]-1-(3-thiomorpholin-4-ylpropyl)-1,4,6,7-tetrahydro-5H-pyrazolo[4,3-c]pyridine-5-carboxamide]",–
0.04,"NC(=O)N1CCc2c(c(-c3ccc(Cl)c(C#Cc4ccc(Cl)c(C(=O)NCCN5CCOCC5)c4)c3)nn2CCCN2CCSCC2)C1 [Example 585, 3-[4-Chloro-3-({4-chloro-3-[(2-morpholin-4-ylethyl)carbamoyl]phenyl}ethynyl)phenyl]-1-(3-thiomorpholin-4-ylpropyl)-1,4,6,7-tetrahydro-5H-pyrazolo[4,3-c]pyridine-5-carboxamide]",–
0.02,"C[C@H]1COCCN1CCCn1nc(-c2ccc(Cl)c(C#Cc3ccc(Cl)c(C(=O)NCC4CCCNC4)c3)c2)c2c1CCN(C(=O)C(N)=O)C2 (stereo partly drawn) [Example 587, 5-{[5-(5-[Amino(oxo)acetyl]-1-{3-[(3S)-3-methylmorpholin-4-yl]propyl}-4,5,6,7-tetrahydro-1H-pyrazolo[4,3-c]pyridin-3-yl)-2-chlorophenyl]ethynyl}-2-chloro-N-(piperidin-3-ylmethyl)benzamide]",–

# The remaining lines, values behind:
SMILES,IC50 [µM],IC50 (CatS IC50) [µM]
"NC(=O)N1CCc2c(c(-c3ccc(Cl)c(C#Cc4ccc(Cl)c(C(=O)NC[C@@H]5CCNC5)c4)c3)nn2CCCN2CCSCC2)C1 [Example 582, 3-{4-Chloro-3-[(4-chloro-3-{[(3R)-pyrrolidin-3-ylmethyl]carbamoyl}phenyl)ethynyl]phenyl}-1-(3-thiomorpholin-4-ylpropyl)-1,4,6,7-tetrahydro-5H-pyrazolo[4,3-c]pyridine-5-carboxamide]",0.04,–
"NC(=O)N1CCc2c(c(-c3ccc(Cl)c(C#Cc4ccc(Cl)c(C(=O)NCC5CCCNC5)c4)c3)nn2CCCN2CCSCC2)C1 (stereo not drawn) [Example 583, 3-[4-Chloro-3-({4-chloro-3-[(piperidin-3-ylmethyl)carbamoyl]phenyl}ethynyl)phenyl]-1-(3-thiomorpholin-4-ylpropyl)-1,4,6,7-tetrahydro-5H-pyrazolo[4,3-c]pyridine-5-carboxamide]",0.03,–
"C[C@H]1COCCN1CCCn1nc(-c2ccc(Cl)c(C#Cc3ccc(Cl)c(C(=O)NC[C@@H]4CCNC4)c3)c2)c2c1CCN(C(=O)C(N)=O)C2 [Example 586, 5-{[5-(5-[Amino(oxo)acetyl]-1-{3-[(3S)-3-methylmorpholin-4-yl]propyl}-4,5,6,7-tetrahydro-1H-pyrazolo[4,3-c]pyridin-3-yl)-2-chlorophenyl]ethynyl}-2-chloro-N-[(3R)-pyrrolidin-3-ylmethyl]benzamide]",–,0.02
"C[C@H]1COCCN1CCCn1nc(-c2ccc(Cl)c(C#Cc3ccc(Cl)c(CN4CCOCC4)c3)c2)c2c1CCN(C(=O)C(N)=O)C2 [Example 588, 2-[3-(4-Chloro-3-{[4-chloro-3-(morpholin-4-ylmethyl)phenyl]ethynyl}phenyl)-1-{3-[(3S)-3-methylmorpholin-4-yl]propyl}-1,4,6,7-tetrahydro-5H-pyrazolo[4,3-c]pyridin-5-yl]-2-oxoacetamide]",–,0.04
"C[C@H]1COCCN1CCCn1nc(-c2ccc(Cl)c(C#Cc3ccc(Cl)c(CNC4CC4)c3)c2)c2c1CCN(C(=O)C(N)=O)C2 [Example 589, 2-(3-[4-Chloro-3-({4-chloro-3-[(cyclopropylamino)methyl]phenyl}ethynyl)phenyl]-1-{3-[(3S)-3-methylmorpholin-4-yl]propyl}-1,4,6,7-tetrahydro-5H-pyrazolo[4,3-c]pyridin-5-yl)-2-oxoacetamide]",–,0.03
"NC(=O)N1CCc2c(c(-c3ccc(Cl)c(C#Cc4ccc(Cl)c(C(=O)NCCN5CCOCC5)c4)c3)nn2CCCN2CCCCC2)C1 [Example 590, 3-[4-Chloro-3-({4-chloro-3-[(2-morpholin-4-ylethyl)carbamoyl]phenyl}ethynyl)phenyl]-1-(3-piperidin-1-ylpropyl)-1,4,6,7-tetrahydro-5H-pyrazolo[4,3-c]pyridine-5-carboxamide]",–,0.07
